Assay results from paper doi:10.64898/2025.12.11.693803v1 (biorxiv, 2025).

Assays:
SnRK1 (in IP-TOR) = biological target: T1, SnRK1 (in IP-TOR) (Arabidopsis thaliana, UniProt Q38997); assay: AMARA-peptide kinase assay with [γ-32P]ATP; assay type: biochemical; conditions: IP-TOR sample; 200 μM AMARA peptide, 20 μM ATP, 10 mM MgCl2, pH 7.5, 30 °C
T1 sequence (Q38997 1-512): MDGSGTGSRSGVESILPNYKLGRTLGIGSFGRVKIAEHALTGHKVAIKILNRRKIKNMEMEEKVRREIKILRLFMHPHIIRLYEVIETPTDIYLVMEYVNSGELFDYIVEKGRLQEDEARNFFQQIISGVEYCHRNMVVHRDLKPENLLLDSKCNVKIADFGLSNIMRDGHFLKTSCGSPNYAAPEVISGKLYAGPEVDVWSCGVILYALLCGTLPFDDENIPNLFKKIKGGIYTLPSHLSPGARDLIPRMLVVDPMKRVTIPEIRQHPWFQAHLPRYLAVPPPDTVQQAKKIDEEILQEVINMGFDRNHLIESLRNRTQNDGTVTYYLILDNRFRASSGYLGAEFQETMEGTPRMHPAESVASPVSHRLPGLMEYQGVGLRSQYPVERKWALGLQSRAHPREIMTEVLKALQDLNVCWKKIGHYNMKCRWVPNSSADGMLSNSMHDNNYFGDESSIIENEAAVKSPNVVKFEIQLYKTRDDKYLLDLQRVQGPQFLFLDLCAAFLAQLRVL

IP-TOR (TOR) = IP-TOR (TOR) (Arabidopsis thaliana, UniProt Q9FR53); assay: biochemical
Chain of IP-TOR (TOR) (Q9FR53 whole entry): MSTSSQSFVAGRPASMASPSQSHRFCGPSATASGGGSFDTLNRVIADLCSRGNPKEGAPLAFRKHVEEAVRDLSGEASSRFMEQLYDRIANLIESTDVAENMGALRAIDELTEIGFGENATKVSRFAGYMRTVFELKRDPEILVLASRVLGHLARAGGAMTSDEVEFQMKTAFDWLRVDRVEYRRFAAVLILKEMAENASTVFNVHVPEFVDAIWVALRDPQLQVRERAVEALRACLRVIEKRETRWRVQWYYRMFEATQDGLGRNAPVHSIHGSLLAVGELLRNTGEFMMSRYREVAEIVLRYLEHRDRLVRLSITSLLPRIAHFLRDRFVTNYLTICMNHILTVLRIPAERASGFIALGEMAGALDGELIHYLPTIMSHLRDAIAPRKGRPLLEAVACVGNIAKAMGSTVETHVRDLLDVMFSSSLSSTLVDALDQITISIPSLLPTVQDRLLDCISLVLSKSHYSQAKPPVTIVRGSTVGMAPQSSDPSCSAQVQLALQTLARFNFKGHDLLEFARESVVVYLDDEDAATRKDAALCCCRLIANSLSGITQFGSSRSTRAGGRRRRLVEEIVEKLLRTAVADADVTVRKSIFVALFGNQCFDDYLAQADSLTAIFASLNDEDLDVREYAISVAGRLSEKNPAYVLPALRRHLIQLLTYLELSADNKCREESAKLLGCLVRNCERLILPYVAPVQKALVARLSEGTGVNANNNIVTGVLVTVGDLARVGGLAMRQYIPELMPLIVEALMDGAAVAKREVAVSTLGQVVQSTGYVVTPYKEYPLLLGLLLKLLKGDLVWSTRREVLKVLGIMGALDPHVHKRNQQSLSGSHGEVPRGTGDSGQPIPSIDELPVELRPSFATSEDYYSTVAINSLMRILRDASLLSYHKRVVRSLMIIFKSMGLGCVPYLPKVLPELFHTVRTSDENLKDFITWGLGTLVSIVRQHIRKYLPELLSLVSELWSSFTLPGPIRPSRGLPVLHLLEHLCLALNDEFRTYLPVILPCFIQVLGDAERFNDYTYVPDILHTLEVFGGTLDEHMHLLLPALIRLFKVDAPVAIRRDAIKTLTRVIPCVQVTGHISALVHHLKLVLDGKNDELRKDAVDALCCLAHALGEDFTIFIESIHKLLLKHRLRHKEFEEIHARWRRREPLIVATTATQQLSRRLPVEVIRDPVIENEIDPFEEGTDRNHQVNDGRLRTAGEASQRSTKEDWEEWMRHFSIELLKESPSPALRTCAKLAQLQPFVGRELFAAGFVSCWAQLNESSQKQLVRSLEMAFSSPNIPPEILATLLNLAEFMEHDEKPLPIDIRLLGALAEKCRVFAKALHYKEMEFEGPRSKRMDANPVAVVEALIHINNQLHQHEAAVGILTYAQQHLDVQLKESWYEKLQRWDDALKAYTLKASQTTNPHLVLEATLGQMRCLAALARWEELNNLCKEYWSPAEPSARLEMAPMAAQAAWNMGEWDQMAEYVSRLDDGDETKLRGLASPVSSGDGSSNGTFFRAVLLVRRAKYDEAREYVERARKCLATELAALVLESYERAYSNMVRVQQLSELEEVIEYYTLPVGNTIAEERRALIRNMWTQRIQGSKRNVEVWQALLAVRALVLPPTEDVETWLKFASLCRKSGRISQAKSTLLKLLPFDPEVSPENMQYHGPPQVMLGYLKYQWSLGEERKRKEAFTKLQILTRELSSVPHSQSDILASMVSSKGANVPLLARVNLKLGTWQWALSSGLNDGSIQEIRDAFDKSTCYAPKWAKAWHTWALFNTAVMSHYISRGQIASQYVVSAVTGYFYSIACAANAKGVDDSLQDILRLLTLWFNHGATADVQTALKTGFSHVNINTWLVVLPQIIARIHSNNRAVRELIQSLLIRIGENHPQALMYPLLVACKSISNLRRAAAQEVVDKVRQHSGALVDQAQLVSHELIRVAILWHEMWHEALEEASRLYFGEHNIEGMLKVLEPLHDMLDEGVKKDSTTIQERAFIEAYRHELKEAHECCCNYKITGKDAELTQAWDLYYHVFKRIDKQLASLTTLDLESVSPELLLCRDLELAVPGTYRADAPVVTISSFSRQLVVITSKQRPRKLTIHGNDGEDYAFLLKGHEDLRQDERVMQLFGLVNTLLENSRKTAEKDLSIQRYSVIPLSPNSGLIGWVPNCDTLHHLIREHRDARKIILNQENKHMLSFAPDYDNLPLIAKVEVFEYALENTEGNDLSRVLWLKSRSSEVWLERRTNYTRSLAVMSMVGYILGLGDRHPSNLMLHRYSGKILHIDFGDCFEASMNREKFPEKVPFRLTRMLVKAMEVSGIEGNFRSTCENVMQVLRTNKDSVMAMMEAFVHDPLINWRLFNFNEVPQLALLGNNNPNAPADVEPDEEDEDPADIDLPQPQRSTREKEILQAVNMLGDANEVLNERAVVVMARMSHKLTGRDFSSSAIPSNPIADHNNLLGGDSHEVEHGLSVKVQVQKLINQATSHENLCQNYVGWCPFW

% reduction of activity at 1 mM (SnRK1 (in IP-TOR)) [%]	Kd (IP-TOR (TOR)) [µM]	SMILES
> 50	–	O=P(O)(O)OC[C@H]1O[C@H](O[C@H]2O[C@H](CO)[C@@H](O)[C@H](O)[C@H]2O)[C@H](O)[C@@H](O)[C@@H]1O [T6P, Trehalose 6-phosphate]
–	5.89 ± 0.83	Nc1ncnc2c1ncn2[C@@H]1O[C@H](COP(=O)(O)OP(=O)(O)OP(=O)(O)O)[C@@H](O)[C@H]1O [ATP]
